Where “and” joins values, the source holds several entries; their conditions need not be identical. Equal entries are not always repeated. Values belong to the molecule of their own block, whether it stands above or below them.
How the values were obtained:
[1] = target: T1, Cdk7/cyclin H/MAT1 (Homo sapiens, UniProt P50613); assay: In vitro kinase assay of Cdk7, RNA Pol II-CTD-GST substrate; type: biochemical; conditions: 0 nM = 100
T1 construct: purchased Upstate
Protocol: To kinase assay buffer were added RNA Pol II-CTD-GST protein (Jena Bioscience, Germany) as a substrate, Cdk9/cyclin T1 or Cdk7/cyclin H/MAT1 recombinant protein (Upstate) as an enzyme, 2.5 μCi [γ-32P]ATP, and 100 μM MgAc/ATP. The total reaction volume was adjusted to 50 μl. Kinase assay reaction was induced at 30° C. for 20 minutes. Upon completion of the reaction, electrophoresis was performed on 8% SDS-polyacrylamide gel. The activities of Cdk7 and Cdk9 over the concentrations of the compounds of Example 1 and Example 2 were confirmed by autoradiography and the results are shown in FIG. 5˜FIG. 8 and Table 3.
(§1) The intensity of bands was analyzed by densitometry (GS-800, Bio-Rad).

[2] = tested on: caspase-3 activity in SNU-354 cells; assay: Measurement of caspase-3 activity (Experimental Example 1-6-2); type: cell-based, human
Protocol: SNU-354 cells treated with the compounds of Examples 1 and 2 were lysed with lysis buffer (0.5% triton X-100, 20 mM Tris-HCl (pH 7.5), 2 mM magnesium chloride, 1 mM DTT, 1 mM EGTA, 50 mM β-glycerophosphate, 25 mM sodium fluoride, 1 mM Na3VO4, 2 μg/mL leupeptin, 2 μg/mL pepstatin A, 100 μg/mL phenylmethylsulfonyl fluoride, 1 μg/mL antipain). The protease analysis buffer necessary for the reaction (20 mM HEPES (pH 7.5), 10% glycerol, 2 mM DTT) was mixed with 20 μM Ac-DEVD-AMC (BD Biosciences, CA, USA) and cell lysates, followed by reaction at 37° C. for 1 hour. Upon completion of the reaction, caspase-3 activity was measured at 380 nm of excitation and 460 nm of emission with spectrofluorometer (TECAN, Switzerland) and the results are shown in FIG. 18 and Table 8.

[3] = tested on: Cdk7; assay: Western blotting of Cdk7 activity (phospho RNA Pol II Ser 5); type: cell-based, human; conditions: 0 nM = 100
Protocol: (§2) After treating the compound of Example 2 to SNU-354 cells, cell pellet was lysed with lysis buffer (0.5% triton X-100, 20 mM Tris-HCl (pH 7.5), 2 mM magnesium chloride, 1 mM DTT, 1 mM EGTA, 50 mM β-glycerophosphate, 25 mM sodium fluoride, 1 mM Na3VO4, 2 μg/mL leupeptin, 2 μg/mL pepstatin A, 100 μg/mL phenylmethylsulfonyl fluoride, and 1 μg/mL antipain) at 4° C. for 1 hour, followed by quantification of protein. A proper amount of protein was electrophoresed on SDS-PAGE gel and then transferred onto polyvinylidene difluoride membrane (Millipore Co., Bedford, Mass.). The membrane was reacted in inhibiting solution (PBS, 5% skim milk, 0.1% tween-20) at room temperature for 1˜2 hours. The membrane was reacted with the primary antibody (goat anti-phospho-Rb, rabbit anti-nucleolin) diluted in the inhibiting solution (1:1000). Then, the membrane was washed with PBST, followed by reaction with the proper secondary antibody (horseradish peroxidase (HRP) conjugated) at room temperature for 1 hour.
Experiment was performed by the same manner as described in step 2 of Experimental Example 1 except that rabbit anti-phospho RNA Pol II (Ser 5) and rabbit anti-phospho RNA Pol II (Ser 2) (from Bethyl, TX, USA) were used as primary antibodies. The results are shown FIG. 9˜FIG. 12, and Table 4 and Table 5.

[4] = target: T2, Cdk1/cyclin B (Homo sapiens, UniProt P06493); assay: In vitro kinase activity assay, histone H1 phosphorylation by Cdk1/cyclin B; type: biochemical; conditions: for Phosphorylation (%) Cdk1: 0 nM = 100%
T2 construct: purchased Upstate
T2 sequence (P06493 whole entry): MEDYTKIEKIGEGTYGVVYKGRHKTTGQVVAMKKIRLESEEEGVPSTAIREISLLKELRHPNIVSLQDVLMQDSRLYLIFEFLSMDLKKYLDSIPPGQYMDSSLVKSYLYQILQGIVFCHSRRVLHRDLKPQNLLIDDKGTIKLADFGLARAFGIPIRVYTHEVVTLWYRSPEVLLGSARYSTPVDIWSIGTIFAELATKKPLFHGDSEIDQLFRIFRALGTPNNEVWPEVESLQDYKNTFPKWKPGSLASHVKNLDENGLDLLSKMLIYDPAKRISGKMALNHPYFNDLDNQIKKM
T2 sequence (P14635 whole entry partner): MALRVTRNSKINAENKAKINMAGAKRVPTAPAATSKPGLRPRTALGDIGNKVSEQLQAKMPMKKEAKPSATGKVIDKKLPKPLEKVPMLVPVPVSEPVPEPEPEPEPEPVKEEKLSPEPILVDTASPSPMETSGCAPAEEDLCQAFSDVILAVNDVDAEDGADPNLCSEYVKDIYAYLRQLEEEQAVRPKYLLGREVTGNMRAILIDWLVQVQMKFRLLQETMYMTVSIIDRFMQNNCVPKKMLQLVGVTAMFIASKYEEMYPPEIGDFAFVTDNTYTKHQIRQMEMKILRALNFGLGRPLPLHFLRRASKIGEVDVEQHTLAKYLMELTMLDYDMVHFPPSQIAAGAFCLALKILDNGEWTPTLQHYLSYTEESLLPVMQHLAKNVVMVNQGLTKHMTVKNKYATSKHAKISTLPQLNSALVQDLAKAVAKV
Protocol: To kinase assay buffer (50 mM Tris (pH 7.4), 10 mM magnesium chloride, 1 mM EGTA, 40 mM β-glycerophosphate, 0.1 mM Na3VO4, 1 mM DTT, 0.1 μg/mL leupeptin, 0.1 μg/mL pepstatin A, 0.1 μg/mL antipain and 1 mM phenylmethylsulfonyl fluoride) were added 5 μg histone H1 as a substrate, 20 ng Cdk1/cyclin B or 40 ng Cdk2/cyclin A recombinant protein (Upstate, NY, USA) as an enzyme, 2.5 μCi [γ-32P]ATP, and 100 μM MgAc/ATP. The total reaction volume was adjusted to 50 μl. The compound of Example 2 was added to the reaction mixture, followed by inducing kinase reaction at 30° C. for 20 minutes. Upon completion of the reaction, the reaction mixture proceeded to electrophoresis on 12% SDS-polyacrylamide gel. Phosphorylation levels of Cdk1 and Cdk2 over the concentrations of the compound of Example 2 were confirmed by autoradiography, and the results are shown in FIG. 1, FIG. 2, and Table 1.
as §1

[5] = tested on: p-Rb (Cdk2); assay: Western blotting of p-Rb (Cdk2) in SNU-354 cells; type: cell-based, human
Protocol: (§3) SNU-354 cells were cultured in RPMI 1640 (Invitrogen, CA, USA) supplemented with 10% FBS (Invitrogen) and antibiotics/antimycotics (Invitrogen) in a 5% CO2 incubator at 37° C. […]
as §2

[6] = tested on: p-Nucleolin (Cdk1); assay: Western blotting of p-nucleolin (Cdk1) in SNU-354 cells; type: cell-based, human
Protocol: as §3, §2

[7] = tested on: normal liver tissues; assay: TUNEL assay and caspase-3 immunohistochemistry of normal liver tissues; type: in vivo, nude mice; conditions: treated mice; FIG. 23-B
Protocol: All the xenografted tumors and liver tissues extracted above were fixed in 36% formaldehyde solution (Junsei Chemical Co., Ltd, Tokyo, JAPAN), followed by paraffin embedding. The embedded tissues were cut into 5 μm sections. H&E staining and TUNEL assay were performed for examining apoptosis with those sections. The expression of cleaved caspase-3 in the tissue section was measured by using cleaved caspase-3 monoclonal antibody (Cell Signaling, MA, USA). ABC peroxidase (Dako Cytomation California, Inc., CA, USA) labeling was performed for immunological sensitization and the results are shown in FIG. 23. As shown in FIG. 23-A, TUNEL positive spots and caspase-3 positive spots were observed more in the group treated with the compound of Example 2 than in the control. […] As shown in FIG. 23-B, it was investigated whether or not the compound of Example 2 could affect normal liver tissues.

T1 sequence (P50613 whole entry): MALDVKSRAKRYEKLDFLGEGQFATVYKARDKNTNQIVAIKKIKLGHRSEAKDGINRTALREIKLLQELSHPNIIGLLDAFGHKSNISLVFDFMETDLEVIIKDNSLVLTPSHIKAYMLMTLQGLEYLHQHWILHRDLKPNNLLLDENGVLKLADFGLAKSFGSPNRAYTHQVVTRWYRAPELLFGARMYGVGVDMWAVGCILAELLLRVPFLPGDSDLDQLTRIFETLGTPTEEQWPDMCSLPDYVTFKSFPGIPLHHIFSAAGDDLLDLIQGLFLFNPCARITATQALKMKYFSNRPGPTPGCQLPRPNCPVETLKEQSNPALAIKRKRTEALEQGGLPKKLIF
T1 sequence (P51946 whole entry partner): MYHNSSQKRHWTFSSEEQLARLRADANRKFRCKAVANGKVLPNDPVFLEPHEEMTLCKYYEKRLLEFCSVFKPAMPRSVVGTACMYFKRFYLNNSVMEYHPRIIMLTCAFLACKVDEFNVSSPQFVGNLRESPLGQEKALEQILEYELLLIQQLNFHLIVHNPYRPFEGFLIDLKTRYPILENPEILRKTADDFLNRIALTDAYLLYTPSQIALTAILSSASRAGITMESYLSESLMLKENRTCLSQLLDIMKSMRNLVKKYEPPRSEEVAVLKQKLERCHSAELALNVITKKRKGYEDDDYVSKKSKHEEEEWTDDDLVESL
T1 sequence (P51948 whole entry partner): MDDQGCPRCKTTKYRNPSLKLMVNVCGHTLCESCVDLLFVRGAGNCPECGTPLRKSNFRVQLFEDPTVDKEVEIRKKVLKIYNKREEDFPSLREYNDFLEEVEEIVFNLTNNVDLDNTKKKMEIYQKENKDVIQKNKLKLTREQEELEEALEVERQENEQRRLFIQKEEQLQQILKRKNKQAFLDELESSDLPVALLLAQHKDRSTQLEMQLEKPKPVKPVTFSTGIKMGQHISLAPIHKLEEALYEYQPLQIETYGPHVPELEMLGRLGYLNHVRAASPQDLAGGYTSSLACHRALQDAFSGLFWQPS

- Cdk7 activity ([1]; 10 nM): 41.8%
- Cdk7 activity ([1]; 100 nM): 10.8%
- Cdk7 activity ([1]; 1000 nM): 5.8%
SMILES: NC(=O)c1c(Br)nc2n([C@H]3O[C@@H](CO)[C@H](O)[C@H]3O)cnc(N)c1-2 [Example 1, 4-amino-6-bromo-1-((2S,3R,4R,5S)-3,4-dihydroxy-5-(hydroxymethyl)-tetrahydrofuran-2-yl)-1H-pyrrolo[2,3-d]pyrimidine-5-carboxamide]
- caspase-3 activity relative to the control ([2]; 1.0 uM and up): three times as high as that of the control
- Cdk7 activity ([3]; 0.1 nM): 90.1%
- Cdk7 activity ([3]; 0.5 nM): 76.3%
- Cdk7 activity ([3]; 1 nM): 37.6%
- Cdk7 activity ([3]; 5 nM): 3.0%
- Cdk7 activity ([3]; 10 nM): 1.7%
- Cdk7 activity ([3]; 50 nM): 0.3%

- Phosphorylation (%) Cdk1 ([4]; 10 nM): 100% and 99.4%
- Phosphorylation (%) Cdk1 ([4]; 20 nM): 92.2%
- Phosphorylation (%) Cdk1 ([4]; 40 nM): 74.1%
- Phosphorylation (%) Cdk1 ([4]; 50 nM): 50%
- Phosphorylation (%) Cdk1 ([4]; 60 nM): 41.6%
- Phosphorylation (%) Cdk1 ([4]; 80 nM): 15.3%
- Phosphorylation (%) Cdk1 ([4]; 100 nM): 4.3%
- IC50 ([4]; histone H1 phosphorylation): 50 nM
- Cdk7 activity ([1]; 10 nM): 92.2%
- Cdk7 activity ([1]; 100 nM): 91.1%
- Cdk7 activity ([1]; 1000 nM): 6.5%
SMILES: CC(C)C(=O)OC[C@@H]1O[C@H](n2cnc(N)c3c(C(N)=O)c(Br)nc2-3)[C@H](O)[C@H]1O [Example 2, ((2S,3R,4R,5S)-5-(4-amino-6-bromo-5-carbamoyl-1H-pyrrolo[2,3-d]pyrimidin-1-yl)-3,4-dihydroxy-tetrahydrofuran-2-yl)methyl isobutyrate]
- Phosphorylation (%) p-Rb(Cdk2) ([5]; treatment time 6 (hours)): 3.6%
- Phosphorylation (%) p-Rb(Cdk2) ([5]; treatment time 12 (hours)): 2.7%
- Phosphorylation (%) p-Rb(Cdk2) ([5]; treatment time 18 (hours)): 0.6%
- Phosphorylation (%) p-Rb(Cdk2) ([5]; treatment time 24 (hours)): 0.3%
- Phosphorylation (%) p-Nucleolin (Cdk1) ([6]; treatment time 6 (hours)): 96.9%
- Phosphorylation (%) p-Nucleolin (Cdk1) ([6]; treatment time 12 (hours)): 11.7%
- Phosphorylation (%) p-Nucleolin (Cdk1) ([6]; treatment time 18 (hours)): 3.1%
- Phosphorylation (%) p-Nucleolin (Cdk1) ([6]; treatment time 24 (hours)): 3.0%
- caspase-3 activity relative to the control ([2]; 0.5 uM and up): 7 times
- Cdk7 activity ([3]; 0.1 nM): 88.4%
- Cdk7 activity ([3]; 0.5 nM): 44.0%
- Cdk7 activity ([3]; 1 nM): 12.7%
- Cdk7 activity ([3]; 5 nM): 3.3%
- Cdk7 activity ([3]; 10 nM): 1.6%
- Cdk7 activity ([3]; 50 nM): 0.6%
- apoptosis in normal liver tissues (TUNEL, caspase-3 immunohistochemistry) [7]: apoptosis was not observed at all

Reference: US9062088B2, “CDK-inhibiting pyrrolopyrimidine carboxamide derivative or pharmaceutically acceptable salt thereof, and pharmaceutical composition containing the same as active ingredient for preventing or treating hepatocellular carcinoma” (SNU R&DB Foundation, priority 2010, dated 2015)
